Data set [1] is described as follows: YEAK in serum of mice after IV or SC dosing, detected by anti-YEAK ELISA. It counts as in vivo.
The subject of data set [2] is monocyte cell line RAW264.7. The data set is described as follows: CCL22 release bioassay in the monocyte cell line RAW264.7. It is filed as cell-based. An excerpt: Following synthesis of different DSP compositions, for example by solid phase synthesis or by solution phase synthesis, the individual lots or batches made by the same manufacturing process, and individual batches of mixtures manufactured by different processes may be tested and compared for variation using bioassays. Depending on the indication of the DSP composition, appropriate bioassays include the release of CCL22 by the monocyte cell line RAW264.7, ex vivo proliferation assays, and measuring the binding of serum proteins to peptides in the DSP composition. Using these bioassays, one may determine subsets of peptides or even individual peptides that are present in any given process or lot. Processes and lots of DSP compositions will be compared to determine whether the same subsets of peptides and/or types of peptides are consistently represented across the different processes and lots.

Another data set has as its system CCL22. The data set is described as follows: Acute release of CCL22 (MDC) in serum or plasma after SC YEAK administration in mice. It is filed as in vivo.
For data set [3] the following is noted: various species, including man; cited from earlier work.
Data set [4] has as its system Ig fraction of rabbit polyserum. Description: ELISA with Ig fraction of rabbit polyserum. It is filed as binding. In general terms: An ELISA detects its analyte on a solid surface through an enzyme-linked reagent.
Where [5] appears, read: mice dosed IV 4 mg/kg or SC 21 mg/kg, route for this value not stated.

Turning to glatiramer acetate [Copaxone], in data set [1] (setting [5]), the maximum serum concentration was found to be 1800 ng/mL and the “time of maximum serum concentration post dosing” value is recorded as “around 15 min”. The “detection in serum at 2 hours post-dosing” value in data set [1] (mice, 2 hours post-dosing) was “still detected”. For the same substance, in data set [2], the “CCL22 release by RAW264.7 cells” value is recorded as “released CCL22 in a concentration dependent manner”. Also, the “relation between dose administered SC and observed maximum CCL22 plasma concentration” value with CCL22 is listed as “linear correlation”. The “persistence in serum after subcutaneous administration” value in data set [3] is “can be detected in serum of various species, including man, several hours after subcutaneous administration”. Besides, the “interaction with / recognition by Ig fraction of rabbit polyserum” value in data set [4] is listed as “interacts strongly”.

Consider plovamer [PI-2301], for which the “persistence in serum after subcutaneous administration” value in data set [3] is “can be detected in serum of various species, including man, several hours after subcutaneous administration”.

The values are drawn from patent US20120282296A1, “METHODS FOR IMPROVING THE DESIGN, BIOAVAILABILITY, AND EFFICACY OF DIRECTED SEQUENCE POLYMER COMPOSITIONS VIA SERUM PROTEIN-BASED DETECTION OF DIRECTED SEQUENCE POLYMER COMPOSITIONS” (ARES TRADING SA, priority 2009, published 2012).
